Patent US20060100431A1, “Biologically active compounds” (Amura Therapeutics Limited, priority 2002, published 2006)

How the values were obtained:
Assay type in all cases: biochemical
[1] = molecular target: Wild-type cruzipain (Trypanosoma cruzi, UniProt P25779); test: Trypanosoma cruzi cruzipain peptidase activity assay (Ki); conditions: read-out: Ki, inhibitors of cruzain and cruzipains
Method in brief: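 Native cruzipain from T. cruzi Dm28 epimastigotes, 2.5 nM, in 100 mM sodium phosphate pH 6.75 with 1 mM EDTA and 10 mM L-cysteine, 25 °C, DMSO <1%. Rates taken from continuous fluorogenic substrate read; Ki by regression assuming reversible pure-competitive inhibition.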

[2] = molecular target: T1, human cathepsin L (Homo sapiens, UniProt P07711); test: Cathepsin L peptidase activity assay (Ki); conditions: read-out: Ki, inhibitors of cathepsin L
T1 construct: purchased CN Biosciences
T1 sequence (P07711 114-333): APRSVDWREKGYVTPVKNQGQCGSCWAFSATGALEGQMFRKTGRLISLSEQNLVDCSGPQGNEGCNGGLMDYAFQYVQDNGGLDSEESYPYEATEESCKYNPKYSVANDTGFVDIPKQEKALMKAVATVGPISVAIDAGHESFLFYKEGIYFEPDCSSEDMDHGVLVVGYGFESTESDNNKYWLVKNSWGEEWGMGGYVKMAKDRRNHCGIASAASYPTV
Procedure: Unless otherwise stated, all general chemicals and biochemicals were purchased from either the Sigma Chemical Company, Poole, Dorset, U.K or from Fisher Scientific UK, Loughborough, Leicestershire, U.K. Absorbance assays were carried out in flat-bottomed 96-well plates (Spectra; Greiner Bio-One Ltd., Stonehouse, Gloucestershire, U.K.) using a SpectraMax PLUS384 plate reader (Molecular Devices, Crawley, U.K.). Fluorescence high throughput assays were carried out in either 384-well microtitre plates (Corning Costar 3705 plates, Fisher Scientific) or 96-well ‘U’ bottomed Microfluor W1 microtitre plates (Thermo Labsystems, Ashford, Middlesex, U.K.). Fluorescence assays were monitored using a SpectraMax Gemini fluorescence plate reader (Molecular Devices). For substrates employing either a 7-amino-4-methylcoumarin (AMC) or a 7-amino-4-trifluoromethylcoumarin (AFC) fluorophore, assays were monitored at an excitation wavelength of 365 nm and an emission wavelength of 450 nm and the fluorescence plate reader calibrated with AMC. For substrates employing a 3-amino-benzoyl (Abz) fluorophore, assays were monitored at an excitation wavelength of 310 nm and an emission wavelength of 445 nm; the fluorescence plate reader calibrated with 3-amino-benzamide (Fluka). Unless otherwise indicated, all the peptidase substrates were purchased from Bachem UK, St Helens, Merseyside, UK. Substrates utilizing fluorescence resonance energy transfer methodology (i.e. FRET-based substrates) were synthesized at Incenta Limited using published methods (Atherton & Sheppard, Solid Phase Peptide Synthesis, IRL Press, Oxford, U.K, 1989) and employed Abz (2-aminobenzoyl) as the fluorescence donor and 3-nitro-tyrosine [Tyr(NO2)] as the fluorescence quencher (Meldal, M. and Breddam, K., Anal. Biochem, 195, 141-147, 1991). Hydroxyethylpiperazine ethanesulfonate (HEPES), tris-hydroxylmethyl aminomethane (tris) base, bis-tris-propane and all the biological detergents (e.g. CHAPS, zwittergents, etc.) were purchased from CN Biosciences UK, Beeston, Nottinghamshire, U.K. Glycerol was purchased from Amersham Pharmacia Biotech, Little Chalfont, Buckinghamshire, U.K. Stock solutions of substrate or inhibitor were made up to 10 mM in 100% dimethylsulfoxide (DMSO) (Rathburns, Glasgow, U.K.) and diluted as appropriately required. In all cases the DMSO concentration in the assays was maintained at less than 1% (vol./vol.).
Assay protocols were based on literature precedent (Table 4; Barrett, A. J., Rawlings, N. D. and Woessner, J. F., 1998, Handbook of Proteolytic Enzymes, Academic Press, London and references therein) and modified as required to suit local assay protocols. Enzyme was added as required to initiate the reaction and the activity, as judged by the change in fluorescence upon conversion of substrate to product, was monitored over time. All assays were carried out at 25±1° C.
Bovine cathepsin S, human cathepsin L, human cathepsin H and human cathepsin B were obtained from CN Biosciences. Recombinant human cathepsin S, human cathepsin K and human cathepsin X were obtained from Dr. Boris Turk (Josef Stefan Institute, Ljubljana, Slovenia). Unless otherwise stated, all peptidase activity assays were carried out in 10 mM bis-tris-propane (BTP), pH 6.5 containing 1 mM EDTA, 5 mM 2-mercaptoethanol and 1 mM CaCl2. Human cathepsin H activity assays were carried out in 10 mM BTP pH 6.5, 142 mM NaCl2, 1 mM CaCl2, 1 mM EDTA, 1 mM DTT, 0.035 mM Zwittergent 3-16. Human cathepsin K assays were carried out in 100 mM sodium acetate; pH 5.5 containing 20 mM L-cysteine and 1 mM EDTA (Bossard, M. J., et. al., J. Biol. Chem., 21, 12517-12524, 1996). Human cathepsin X assays were carried out in 100 mM sodium acetate; pH 5.5 containing 20 mM L-cysteine; 0.05% (w/v) Brij 35 and 1 mM EDTA (Santamaria, I., et. al., J. Biol. Chem., 273, 16816-16823, 1998; Klemencic, J, et al., Eur. J. Biochem., 267, 5404-5412, 2000). […]

[3] = molecular target: T2, CPB2.8ΔCTE (Leishmania mexicana, UniProt P36400); test: Leishmania mexicana cysteine protease B (CPB) peptidase activity assay (Ki); conditions: Ki, inhibitors of Leismania mexicana CPB protease
T2 construct: Wild-type recombinant CPB without the C-terminal extention (i.e. CPB2.8ΔCTE); Dr. Jeremy Mottram (Wellcome Centre for Molecular Parasitology, University of Glasgow)
T2 sequence (P36400 126-343, stated change not applied): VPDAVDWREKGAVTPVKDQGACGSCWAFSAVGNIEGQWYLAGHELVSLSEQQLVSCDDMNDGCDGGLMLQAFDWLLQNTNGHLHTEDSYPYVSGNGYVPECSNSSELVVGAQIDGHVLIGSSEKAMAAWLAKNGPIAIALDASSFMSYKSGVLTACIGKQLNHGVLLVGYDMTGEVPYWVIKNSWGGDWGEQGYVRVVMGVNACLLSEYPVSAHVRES
Method in brief: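 Recombinant CPB2.8ΔCTE (0.25 nM) was assayed in 100 mM sodium acetate pH 5.5 with 1 mM EDTA, 200 mM NaCl and 10 mM DTT at 25 °C, DMSO <1%, enzyme added to start. Rates were taken from continuous fluorescence slopes; apparent Ki was fitted assuming reversible, pure-competitive inhibition.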

Chain of Wild-type cruzipain (P25779 whole entry): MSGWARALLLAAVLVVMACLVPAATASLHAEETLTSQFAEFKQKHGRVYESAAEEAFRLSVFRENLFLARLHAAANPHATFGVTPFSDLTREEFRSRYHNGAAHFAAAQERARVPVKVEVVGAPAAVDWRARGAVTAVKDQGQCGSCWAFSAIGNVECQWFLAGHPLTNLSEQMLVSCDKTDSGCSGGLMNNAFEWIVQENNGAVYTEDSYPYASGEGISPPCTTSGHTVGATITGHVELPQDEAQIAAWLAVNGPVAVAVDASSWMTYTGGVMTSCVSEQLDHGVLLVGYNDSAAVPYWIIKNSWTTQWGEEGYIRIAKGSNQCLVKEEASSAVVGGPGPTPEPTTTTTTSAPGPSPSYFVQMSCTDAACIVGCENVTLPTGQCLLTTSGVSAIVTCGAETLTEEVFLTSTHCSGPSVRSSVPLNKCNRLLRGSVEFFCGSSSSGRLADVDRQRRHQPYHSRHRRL

SMILES	Ki [1] [µM]	Ki [2] [µM]	Ki [3] [µM]
CC(C)C[C@H](NC(=O)c1ccc2ccccc2n1)C(=O)N1CC[C@@H]2[C@H]1C(=O)CN2C(=O)c1cccnc1 [Example 18, (3aR,6aS)-Quinoline-2-carboxylic acid {(1S)-3-methyl-1-[6-oxo-4-(pyridine-3-carbonyl)-hexahydro-pyrrolo[3,2-b]pyrrole-1-carbonyl]-butyl}-amide]	< 5	< 5	–
CC(C)C[C@H](NC(=O)c1ccc(N(C)C)cc1)C(=O)N1CC[C@@H]2[C@H]1C(=O)CN2C(=O)c1cccc(F)c1 [Example 63, (3aR,6aS)-4-Dimethylamino-N-{(1S)-1-[4-(3-fluoro-benzoyl)-6-oxo-hexahydro-pyrrolo[3,2-b]pyrrole-1-carbonyl]-3-methyl-butyl}-benzamide]	< 5	< 5	< 5
CC(C)C[C@H](NC(=O)c1ccc(N(C)C)cc1)C(=O)N1CC[C@@H]2[C@H]1C(=O)CN2C(=O)c1cccc(C(F)(F)F)c1 [Example 68, (3aR,6aS)-4-Dimethylamino-N-{(1S)-3-methyl-1-[6-oxo-4-(3-trifluoromethyl-benzoyl)-hexahydro-pyrrolo[3,2-b]pyrrole-1-carbonyl]-butyl}-benzamide]	< 5	< 5	< 5
Cc1cc(C)cc(C(=O)N2CC(=O)[C@@H]3[C@H]2CCN3C(=O)[C@H](CC(C)C)NC(=O)c2ccc(N(C)C)cc2)c1 [Example 111, (3aR,6aS)-4-Dimethylamino-N-{(1S)-1-[4-(3,5-dimethyl-benzoyl)-6-oxo-hexahydro-pyrrolo[3,2-b]pyrrole-1-carbonyl]-3-methyl-butyl}-benzamide]	< 5	< 5	< 5
CC(C)C[C@H](NC(=O)c1ccc([N+](C)(C)[O-])cc1)C(=O)N1CC[C@@H]2[C@H]1C(=O)CN2C(=O)c1ccccc1 [Example 117, (3aR,6aS)-N-[(1S)-1-(4-Benzoyl-6-oxo-hexahydro-pyrrolo[3,2-b]pyrrole-1-carbonyl)-3-methyl-butyl]-4-(N-oxy-dimethylamino)-benzamide]	< 5	< 5	< 5
CC(C)C[C@H](NC(=O)c1cccc(CN)c1)C(=O)N1CC[C@@H]2[C@H]1C(=O)CN2C(=O)Cc1ccccc1 [Example 118, (3aR,6aS)-3-Aminomethyl-N-[(1S)-3-methyl-1-(6-oxo-4-phenylacetyl-hexahydro-pyrrolo[3,2-b]pyrrole-1-carbonyl)-butyl]-benzamide]	< 5	< 5	< 5
CC(C)C[C@H](NC(=O)c1cccc(CN)c1)C(=O)N1CC[C@@H]2[C@H]1C(=O)CN2C(=O)Cc1ccccc1F [Example 178, (3aR,6aS)-3-Aminomethyl-N-((1S)-1-{4-[2-(2-fluoro-phenyl)-acetyl]-6-oxo-hexahydro-pyrrolo[3,2-b]pyrrole-1-carbonyl}-3-methyl-butyl)-benzamide]	–	< 5	< 5
CC(C)C[C@H](NC(=O)c1cccc(CN)c1)C(=O)N1CC[C@@H]2[C@H]1C(=O)CN2C(=O)Cc1cccc(F)c1 [Example 179, (3aR,6aS)-3-Aminomethyl-N-((1S)-1-{4-[2-(3-fluoro-phenyl)-acetyl]-6-oxo-hexahydro-pyrrolo[3,2-b]pyrrole-1-carbonyl}-3-methyl-butyl)-benzamide]	–	< 5	< 5
CC(C)C[C@H](NC(=O)c1cccc(CN)c1)C(=O)N1CC[C@@H]2[C@H]1C(=O)CN2C(=O)[C@H](N)c1ccccc1 [Example 181, (3aR,6aS)-3-Aminomethyl-N-{(1S)-1-[4-((2R)-2-amino-2-phenyl-acetyl)-6-oxo-hexahydro-pyrrolo[3,2-b]pyrrole-1-carbonyl]-3-methyl-butyl}-benzamide]	–	< 5	< 5
CC(C)C[C@H](NC(=O)c1cccc(CN)c1)C(=O)N1CC[C@@H]2[C@H]1C(=O)CN2C(=O)[C@@H](N)c1ccccc1 [Example 182, (3aR,6aS)-3-Aminomethyl-N-{(1S)-1-[4-((2S)-2-amino-2-phenyl-acetyl)-6-oxo-hexahydro-pyrrolo[3,2-b]pyrrole-1-carbonyl)-3-methyl-butyl}-benzamide]	–	< 5	< 5
CC(C)C[C@H](NC(=O)c1ccc(N(C)C)cc1)C(=O)N1CC[C@@H]2[C@H]1C(=O)CN2C(=O)c1ccc(Cl)o1 [Example 244, (3aR,6aS)-N-{(1S)-1-[4-(5-Chloro-furan-2-carbonyl)-6-oxo-hexahydro-pyrrolo[3,2-b]pyrrole-1-carbonyl]-3-methyl-butyl}-4-dimethylamino-benzamide]	< 5	< 5	–
O=C(N[C@@H](CC1CCCCC1)C(=O)N1CC[C@@H]2[C@H]1C(=O)CN2C(=O)c1ccc2ccccc2c1)c1ccsc1 [Example 256, (3aR,6aS)-Thiophene-3-carboxylic acid {(1S)-1-cyclohexylmethyl-2-[4-(naphthalene-2-carbonyl)-6-oxo-hexahydro-pyrrolo[3,2-b]pyrrol-1-yl]-2-oxo-ethyl}-amide]	< 5	< 5	–
NCc1cccc(C(=O)N[C@@H](CSCc2ccccc2)C(=O)N2CC[C@@H]3[C@H]2C(=O)CN3C(=O)c2ccccc2)c1 [Example 278, (3aR,6aS)-3-Aminomethyl-N-[(1R)-2-(4-benzoyl-6-oxo-hexahydro-pyrrolo[3,2-b]pyrrole-1-yl)-1-benzylsulfanylmethyl-2-oxo-ethyl]-benzamide]	–	< 5	< 5
O=C(N[C@@H](CC1CCCCC1)C(=O)N1CC[C@@H]2[C@H]1C(=O)CN2C(=O)c1ccccc1)c1cccs1 [Example 287, (3aR,6aS)-Thiophene-2-carboxylic acid [(1S)-2-(4-benzoyl-6-oxo-hexahydro-pyrrolo[3,2-b]pyrrole-1-yl)-1-cyclohexylmethyl-2-oxo-ethyl]-amide]	< 5	< 5	–
O=C(N[C@@H](CC1CCCCC1)C(=O)N1CC[C@@H]2[C@H]1C(=O)CN2C(=O)c1ccccc1)c1ccco1 [Example 288, (3aR,6aS)-Furan-2-carboxylic acid [(1S)-2-(4-benzoyl-6-oxo-hexahydro-pyrrolo[3,2-b]pyrrole-1-yl)-1-cyclohexylmethyl-2-oxo-ethyl]-amide]	< 5	< 5	–
CN(C)c1ccc(C(=O)N[C@@H](Cc2ccc(O)cc2)C(=O)N2CC[C@@H]3[C@H]2C(=O)CN3C(=O)c2cccs2)cc1 [Example 359, (3aR,6aS)-4-Dimethylamino-N-{(1S)-1-(4-hydroxy-benzyl)-2-oxo-2-[6-oxo-4-(thiophene-2-carbonyl)-hexahydro-pyrrolo[3,2-b]pyrrol-1-yl]-ethyl}-benzamide]	–	< 5	–
